# From PMC10035947, “Development of novel anilinoquinazoline-based carboxylic acids as non-classical carbonic anhydrase IX and XII inhibitors” (Journal of Enzyme Inhibition and Medicinal Chemistry, 2023)
# Assays:
# [1] = system: SNB-19; test: NCI SRB assay; assay type: cell-based, human
# [2] = system: HT29; test: NCI SRB assay; assay type: cell-based, human
# [3] = system: EKVX; test: NCI SRB assay; assay type: cell-based, human
# [4] = system: MALME-3M; test: NCI SRB assay; assay type: cell-based, human
# [5] = molecular target: T1, hCA I (Homo sapiens, UniProt P00915); test: stopped flow CO2 hydrase assay; assay type: biochemical; conditions: mean from 3 assays
# T1 construct: made in house
# Method: (§1) Carbonic anhydrase inhibition assay
# The carbonic anhydrase catalyzed CO2 hydration actions for the quinazoline-based […]
# (§2) Photophysics stopped-flow, as described previously. The enzymes are recombinant proteins prepared in our lab. Phenol red (at a concentration of 0.2 mM) has been used as indicator, working at the absorbance maximum of 557 nm, with 20 mM Hepes (pH 7.5) as buffer, and 20 mM Na2SO4 (for maintaining constant the ionic strength), following the initial rates of the CA- […]
# 1.7 to 17 mM for the determination of the kinetic parameters and inhibition constants. For each […]
# (§3) initial velocity. The uncatalyzed rates were determined in the same manner and subtracted from the total observed rates. Stock solutions of inhibitor (0.1 mM) were prepared in distilled-deionized water and dilutions up to 0.01 nM were done thereafter with the assay buffer. Inhibitor and enzyme solutions were preincubated together for 15 min at room temperature prior to assay, in order to allow for the formation of the E-I complex. The inhibition constants were obtained by non-linear least-squares methods using PRISM 3 and the Cheng-Prusoff equation, and represent the mean from at least three different determinations.
# [6] = system: OVCAR-8; test: NCI SRB assay; assay type: cell-based, human
# [7] = system: HS 578 T; test: NCI SRB assay; assay type: cell-based, human
# [8] = system: UACC-62; test: NCI SRB assay; assay type: cell-based, human
# [9] = system: SK-MEL-5; test: NCI SRB assay; assay type: cell-based, human
# [10] = system: A498; test: NCI SRB assay; assay type: cell-based, human
# [11] = system: KM12; test: NCI SRB assay; assay type: cell-based, human
# [12] = molecular target: T2, hCA II (Homo sapiens, UniProt P00918); test: stopped flow CO2 hydrase assay; assay type: biochemical; conditions: mean from 3 assays
# T2 construct: made in house
# Method: as §1
# as §2, with “The carbonic anhydrase catalyzed CO2 hydration actions for the quinazoline-based carboxylic acid derivatives (6a-c, 7a-c and 8a-c) were assayed utilizing an instrument of Applied Photophysics” for “Photophysics”
# as §3, with “1.7 to 17 mM for the determination of the kinetic parameters and inhibition constants. For each inhibitor at least six traces of the initial 5-10% of the reaction have been used for determining the initial” for “initial”
# [13] = system: HCC-2998; test: NCI SRB assay; assay type: cell-based, human
# [14] = system: U251; test: NCI SRB assay; assay type: cell-based, human
# [15] = system: 786-0; test: NCI SRB assay; assay type: cell-based, human
# [16] = system: MOLT-4; test: NCI SRB assay; assay type: cell-based, human
# [17] = system: SK-MEL-2; test: NCI SRB assay; assay type: cell-based, human
# [18] = system: SK-MEL-28; test: NCI SRB assay; assay type: cell-based, human
# [19] = system: SK-OV-3; test: NCI SRB assay; assay type: cell-based, human
# [20] = system: OVCAR-5; test: NCI SRB assay; assay type: cell-based, human
# [21] = system: HOP-62; test: NCI SRB assay; assay type: cell-based, human
# [22] = system: SF-539; test: NCI SRB assay; assay type: cell-based, human
# [23] = system: MDA-MB-435; test: NCI SRB assay; assay type: cell-based
# T1 sequence (P00915 whole entry): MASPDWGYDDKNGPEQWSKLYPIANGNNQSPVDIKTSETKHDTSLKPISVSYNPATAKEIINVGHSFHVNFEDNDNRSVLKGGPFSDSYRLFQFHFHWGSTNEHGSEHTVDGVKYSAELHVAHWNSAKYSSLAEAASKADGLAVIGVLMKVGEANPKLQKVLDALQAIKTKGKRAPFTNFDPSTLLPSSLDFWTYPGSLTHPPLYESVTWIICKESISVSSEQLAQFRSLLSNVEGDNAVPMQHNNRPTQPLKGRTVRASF
smiles,measurement,setting,value
"Cc1cccc(-c2nc(Nc3ccccc3C(=O)O)c3ccccc3n2)c1 [6a, 2-((2-(m-Tolyl)quinazolin-4-yl)amino)benzoic acid]",GI%,"[1]; SNB-19, 10 μM",79%
same,Growth Percent,"[1]; SNB-19, 1.00E-5 Molar",21.25%
same,GI%,"[2]; HT29, 10 μM",60%
same,Growth Percent,"[2]; HT29, 1.00E-5 Molar",39.66%
same,GI%,[3]; 10 μM,79%
same,Growth Percent,[3]; 1.00E-5 Molar,20.98%
same,GI%,[4]; 10 μM,63%
same,Growth Percent,[4]; 1.00E-5 Molar,37.17%
same,Ki,[5],> 100 µM
same,GI%,"[6]; OVCAR-8, 10 μM",40%
same,Growth Percent,"[6]; OVCAR-8, 1.00E-5 Molar",60.34%
same,GI%,"[7]; HS 578 T, 10 μM",84%
same,Growth Percent,"[7]; HS 578T, 1.00E-5 Molar",16.61%
same,GI%,"[8]; UACC-62, 10 μM",72%
same,Growth Percent,"[8]; UACC-62, 1.00E-5 Molar",28.00%
same,GI%,"[9]; SK-MEL-5, 10 μM",94%
same,Growth Percent,"[9]; SK-MEL-5, 1.00E-5 Molar",6.01%
same,GI%,"[10]; A498, 10 μM",52%
same,Growth Percent,"[10]; A498, 1.00E-5 Molar",47.56%
same,GI%,"[11]; KM12, 10 μM",70%
same,Growth Percent,"[11]; KM12, 1.00E-5 Molar",29.97%
same,Ki,[12],85.2 µM
same,GI%,"[13]; HCC-2998, 10 μM",73%
same,Growth Percent,"[13]; HCC-2998, 1.00E-5 Molar",27.10%
same,GI%,"[14]; U251, 10 μM",73%
same,Growth Percent,"[14]; U251, 1.00E-5 Molar",26.61%
same,GI%,"[15]; 786-0, 10 μM",75%
same,Growth Percent,"[15]; 786-0, 1.00E-5 Molar",25.01%
same,GI%,"[16]; MOLT-4, 10 μM",65%
same,Growth Percent,"[16]; MOLT-4, 1.00E-5 Molar",34.28%
same,GI%,"[17]; SK-MEL-2, 10 μM",34%
same,Growth Percent,"[17]; SK-MEL-2, 1.00E-5 Molar",66.01%
same,GI%,"[18]; SK-MEL-28, 10 μM",50%
same,Growth Percent,"[18]; SK-MEL-28, 1.00E-5 Molar",49.95%
same,GI%,"[19]; SK-OV-3, 10 μM",24%
same,Growth Percent,"[19]; SK-OV-3, 1.00E-5 Molar",76.74%
same,GI%,"[20]; OVCAR-5, 10 μM",23%
same,Growth Percent,"[20]; OVCAR-5, 1.00E-5 Molar",77.00%
same,GI%,"[21]; HOP-62, 10 μM",54%
same,Growth Percent,"[21]; HOP-62, 1.00E-5 Molar",46.18%
same,GI%,"[22]; SF-539, 10 μM",52%
same,Growth Percent,"[22]; SF-539, 1.00E-5 Molar",47.66%
same,GI%,"[23]; MDA-MB-435, 10 μM",55%
same,Growth Percent,"[23]; MDA-MB-435, 1.00E-5 Molar",44.63%
